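Growth conditions: 96-well plates. Treatment: test compound, 48 hours, 5 concentrations. Analysis: linear interpolation between bracketing concentrations; unreached endpoints set to highest concentration. At the GI50, growth is halved. TGI marks complete inhibition of growth.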
Legend:
Assay in all cases: growth of human tumour cells (NCI), 48 h
[1] = system: NCI-H23 lung
[2] = system: MALME-3M melanoma
[3] = system: MDA-MB-435
[4] = system: SNB-75 CNS
[5] = system: OVCAR-3 ovarian
[6] = system: SF-539 CNS
[7] = system: SK-MEL-28 melanoma
[8] = system: UACC-62 melanoma
[9] = system: HT29 colon
[10] = system: HCT-15 colon
[11] = system: NCI/ADR-RES ovarian
[12] = system: SW-620 colon
[13] = system: SK-MEL-5 melanoma
[14] = system: NCI-H226 lung
[15] = system: SK-MEL-2 melanoma
[16] = system: OVCAR-8 ovarian
[17] = system: RXF 393 renal
[18] = system: NCI-H460 lung
[19] = system: SF-295 CNS
[20] = system: KM12 colon
[21] = system: T-47D breast
[22] = system: M14 melanoma
[23] = system: LOX IMVI melanoma
[24] = system: SK-OV-3 ovarian
[25] = system: HCC-2998 colon
[26] = system: MDA-MB-231 breast
[27] = system: OVCAR-5 ovarian
[28] = system: BT-549 breast
[29] = system: HCT-116 colon
[30] = system: UACC-257 melanoma
[31] = system: IGROV1 ovarian
[32] = system: MCF7 breast
[33] = system: U251 CNS
[34] = system: A549 NSCLC
[35] = system: NCI-H522 lung
[36] = system: SN12C renal
[37] = system: SF-268 CNS
[38] = system: HOP-92 NSCLC
[39] = system: DU-145 prostate
[40] = system: RPMI-8226 leukemia
[41] = system: SNB-19 CNS
[42] = system: PC-3 prostate
[43] = system: 786-0 renal
[44] = system: EKVX NSCLC
[45] = system: ACHN renal
[46] = system: CAKI-1 renal
[47] = system: UO-31 renal
[48] = system: COLO 205 colon
[49] = system: OVCAR-4 ovarian
[50] = system: TK-10 renal
[51] = system: A498 renal
[52] = system: HS 578T breast
[53] = system: CCRF-CEM leukemia
[54] = system: MOLT-4 leukemia
[55] = system: K-562 leukemia
[56] = system: SR leukemia
[57] = system: HOP-62 NSCLC
[58] = system: HL-60(TB) leukemia

SMILES: Cc1ccc([I+]c2ccc(C)cc2)cc1
- GI50 [1]: 2.03 µM
- TGI [1]: 93.4 µM
- GI50 [2]: 1.97 µM
- TGI [2]: 44.8 µM
- GI50 [3]: 5.28 µM
- TGI [3]: 77.3 µM
- GI50 [4]: 7.44 µM
- TGI [4]: > 100 µM
- GI50 [5]: 7.63 µM
- TGI [5]: > 100 µM
- GI50 [6]: 16.4 µM
- TGI [6]: > 100 µM
- GI50 [7]: 10.6 µM
- TGI [7]: > 100 µM
- GI50 [8]: 8.86 µM
- TGI [8]: > 100 µM
- GI50 [9]: 0.887 µM
- TGI [9]: 27.4 µM
- GI50 [10]: 59.5 µM
- TGI [10]: > 100 µM
- GI50 [11]: > 100 µM
- TGI [11]: > 100 µM
- GI50 [12]: 3.94 µM
- TGI [12]: > 100 µM
- GI50 [13]: 0.79 µM
- TGI [13]: 3.89 µM
- GI50 [14]: 17.8 µM
- TGI [14]: > 100 µM
- GI50 [15]: 14.1 µM
- TGI [15]: 94.4 µM
- GI50 [16]: 2.2 µM
- TGI [16]: 46.5 µM
- GI50 [17]: 36.6 µM
- TGI [17]: > 100 µM
- GI50 [18]: 3.48 µM
- TGI [18]: 30.4 µM
- GI50 [19]: 1.86 µM
- TGI [19]: 8.74 µM
- GI50 [20]: 4.27 µM
- TGI [20]: 52.2 µM
- GI50 [21]: 3.69 µM
- TGI [21]: 54.2 µM
- GI50 [22]: 10.8 µM
- TGI [22]: > 100 µM
- GI50 [23]: 2.33 µM
- TGI [23]: > 100 µM
- GI50 [24]: 21.8 µM
- TGI [24]: > 100 µM
- GI50 [25]: 6.44 µM
- TGI [25]: > 100 µM
- GI50 [26]: 25.1 µM
- TGI [26]: > 100 µM
- GI50 [27]: 39.2 µM
- TGI [27]: > 100 µM
- GI50 [28]: 5.28 µM
- TGI [28]: 75.7 µM
- GI50 [29]: 0.821 µM
- TGI [29]: > 100 µM
- GI50 [30]: 2.71 µM
- TGI [30]: 57.4 µM
- GI50 [31]: 4.42 µM
- TGI [31]: > 100 µM
- GI50 [32]: 4.01 µM
- TGI [32]: > 100 µM
- GI50 [33]: 4.1 µM
- TGI [33]: > 100 µM
- GI50 [34]: 4.22 µM
- TGI [34]: > 100 µM
- GI50 [35]: 12.3 µM
- TGI [35]: > 100 µM
- GI50 [36]: 18.6 µM
- TGI [36]: > 100 µM
- GI50 [37]: 7.49 µM
- TGI [37]: > 100 µM
- GI50 [38]: 4.69 µM
- TGI [38]: > 100 µM
- GI50 [39]: 12 µM
- TGI [39]: > 100 µM
- GI50 [40]: 1.16 µM
- TGI [40]: 50 µM
- GI50 [41]: 16.1 µM
- TGI [41]: > 100 µM
- GI50 [42]: 6.73 µM
- TGI [42]: > 100 µM
- GI50 [43]: 28.8 µM
- TGI [43]: > 100 µM
- GI50 [44]: 0.484 µM
- TGI [44]: 42.5 µM
- GI50 [45]: 14.9 µM
- TGI [45]: > 100 µM
- GI50 [46]: 4.55 µM
- TGI [46]: 71.4 µM
- GI50 [47]: 21.3 µM
- TGI [47]: > 100 µM
- GI50 [48]: 6.93 µM
- TGI [48]: 95.2 µM
- GI50 [49]: 7.75 µM
- TGI [49]: > 100 µM
- GI50 [50]: 6.63 µM
- TGI [50]: > 100 µM
- GI50 [51]: 2.28 µM
- TGI [51]: > 100 µM
- GI50 [52]: 24.8 µM
- TGI [52]: > 100 µM

SMILES: CC1(C)CC[C@]2(CO)CC[C@]3(C)C(=CC[C@@H]4[C@@]5(C)CC[C@H](NCO)C(C)(C)[C@@H]5CC[C@]43C)[C@@H]2C1
- GI50 [14]: 2.26 µM
- TGI [14]: 5.73 µM
- GI50 [24]: 3.29 µM
- TGI [24]: 9.06 µM
- GI50 [53]: 2.04 µM
- TGI [53]: 5.94 µM
- GI50 [37]: 2.39 µM
- TGI [37]: 6.22 µM
- GI50 [40]: 1.75 µM
- TGI [40]: 4.57 µM
- GI50 [46]: 1.85 µM
- TGI [46]: 3.52 µM
- GI50 [51]: 1.38 µM
- TGI [51]: 2.83 µM
- GI50 [54]: 1.91 µM
- TGI [54]: 5.1 µM

SMILES: COc1ccc(-c2nc(Nc3ccc(F)cc3)nc(Nc3ccc4c(c3)nc(C)n4Cc3ccccc3)n2)cc1
- GI50 [1]: 6.54 µM
- TGI [1]: > 100 µM
- GI50 [2]: 4.32 µM
- TGI [2]: > 100 µM
- GI50 [3]: 3.27 µM
- TGI [3]: > 100 µM
- GI50 [4]: 2.83 µM
- TGI [4]: > 100 µM
- GI50 [5]: 6.54 µM
- TGI [5]: > 100 µM
- GI50 [6]: 4.99 µM
- TGI [6]: > 100 µM
- GI50 [7]: 4.14 µM
- TGI [7]: > 100 µM
- GI50 [8]: 6.66 µM
- TGI [8]: > 100 µM
- GI50 [9]: 1.76 µM
- TGI [9]: 3.56 µM
- GI50 [10]: 2.95 µM
- TGI [10]: > 100 µM
- GI50 [11]: 3.23 µM
- TGI [11]: 12.2 µM
- GI50 [12]: 5.25 µM
- TGI [12]: > 100 µM
- GI50 [13]: 3.2 µM
- TGI [13]: 24.2 µM
- GI50 [14]: 5.34 µM
- TGI [14]: > 100 µM
- GI50 [15]: 3.47 µM
- TGI [15]: 11.9 µM
- GI50 [16]: 3.45 µM
- TGI [16]: > 100 µM
- GI50 [17]: 2.53 µM
- TGI [17]: 9.54 µM
- GI50 [18]: 3.35 µM
- TGI [18]: 20.9 µM
- GI50 [19]: 3.73 µM
- TGI [19]: > 100 µM
- GI50 [20]: 3.55 µM
- TGI [20]: 33.8 µM
- GI50 [21]: 2.42 µM
- TGI [21]: 44.2 µM
- GI50 [55]: 3.44 µM
- TGI [55]: > 100 µM
- GI50 [22]: 3.72 µM
- TGI [22]: > 100 µM
- GI50 [56]: 3.49 µM
- TGI [56]: 47.8 µM
- GI50 [23]: 3.98 µM
- TGI [23]: 57.6 µM
- GI50 [24]: 10.1 µM
- TGI [24]: > 100 µM
- GI50 [25]: 5.85 µM
- TGI [25]: > 100 µM
- GI50 [26]: 3.64 µM
- TGI [26]: 18.9 µM
- GI50 [27]: 3.26 µM
- TGI [27]: 68.9 µM
- GI50 [28]: 3.52 µM
- TGI [28]: > 100 µM
- GI50 [29]: 3 µM
- TGI [29]: > 100 µM
- GI50 [30]: 7.17 µM
- TGI [30]: > 100 µM
- GI50 [57]: 8.47 µM
- TGI [57]: > 100 µM
- GI50 [31]: 5.41 µM
- TGI [31]: > 100 µM
- GI50 [32]: 3.14 µM
- TGI [32]: > 100 µM
- GI50 [53]: 2.88 µM
- TGI [53]: > 100 µM
- GI50 [33]: 4.19 µM
- TGI [33]: > 100 µM
- GI50 [34]: 3.59 µM
- TGI [34]: > 100 µM
- GI50 [35]: 5.92 µM
- TGI [35]: > 100 µM
- GI50 [36]: 6.18 µM
- TGI [36]: > 100 µM
- GI50 [37]: 7.25 µM
- TGI [37]: > 100 µM
- GI50 [38]: 2.59 µM
- TGI [38]: > 100 µM
- GI50 [39]: 7.59 µM
- TGI [39]: > 100 µM
- GI50 [40]: 2.48 µM
- TGI [40]: 88.1 µM
- GI50 [58]: 4.54 µM
- TGI [58]: > 100 µM
- GI50 [41]: 6.9 µM
- TGI [41]: > 100 µM
- GI50 [42]: 3.11 µM
- TGI [42]: > 100 µM
- GI50 [43]: 2.68 µM
- TGI [43]: 11.2 µM
- GI50 [45]: 3.13 µM
- TGI [45]: > 100 µM
- GI50 [47]: 3.53 µM
- TGI [47]: > 100 µM
- GI50 [48]: 2.28 µM
- TGI [48]: 5.95 µM
- GI50 [49]: 1.59 µM
- TGI [49]: > 100 µM
- GI50 [51]: 2.39 µM
- TGI [51]: 62.4 µM
- GI50 [54]: 3.44 µM
- TGI [54]: > 100 µM
- GI50 [52]: 6.63 µM
- TGI [52]: > 100 µM
